{
  "source": "patent US9750700B2",
  "about": "(Natco Pharma Limited, priority 2011, dated 2017)",
  "origin": "cited, not measured here",
  "settings": "crystalline form of Imatinib mesylate",
  "data": [
    {"smiles": "CS(=O)(=O)O.Cc1ccc(NC(=O)c2ccc(CN3CCN(C)CC3)cc2)cc1Nc1nccc(-c2cccnc2)n1", "note": "[α-crystalline form]", "values": [
      {"measurement": "hygroscopicity", "value": "hygroscopic"}
    ]}
  ]
}
